Blank lines part the entries; values can stand above or below the compound they belong to.
Key:
[1] = molecular target: T1, DC-SIGN (ECD) (Homo sapiens, UniProt Q9NNX6); test: competitive 19F-R2 filtered NMR experiments (spy molecule 6-F-ManαOMe); type: binding; conditions: for Ki: non-linear least squares fitting, [6-F-ManαOMe] 400 µM, [DC-SIGN (CRDs)] 10 µM, 298 K, pH 8.0; for loss in affinity versus the trisaccharide 1: fluorinated disaccharides versus 1; for weaker ligand relative to best binders (1b, 1c, 1d): fold loss of affinity from KI values
T1 construct: DC-SIGN full extracellular domain (ECD, residues 70-404, Thermo Fischer Scientific); made in house
T1 sequence (Q9NNX6 70-404): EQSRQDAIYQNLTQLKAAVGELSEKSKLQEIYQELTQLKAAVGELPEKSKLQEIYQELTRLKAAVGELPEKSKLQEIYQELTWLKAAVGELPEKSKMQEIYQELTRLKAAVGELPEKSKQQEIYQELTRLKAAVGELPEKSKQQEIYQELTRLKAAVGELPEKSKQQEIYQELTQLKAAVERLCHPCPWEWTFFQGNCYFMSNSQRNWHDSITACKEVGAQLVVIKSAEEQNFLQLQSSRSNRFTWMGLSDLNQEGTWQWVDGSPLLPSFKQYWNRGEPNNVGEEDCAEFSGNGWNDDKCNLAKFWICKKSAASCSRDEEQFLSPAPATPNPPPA
Source text: In order to gain insights into the effects that the different fluorination patterns may have in the binding event, the affinities of 1b, the natural analogue of 1, as well as 1c and 1d, two partially fluorinated trisaccharides, were also estimated. (Table 2, Figure S1).
(§1) For KD estimation of 6-deoxy-6-F-Man (the spy-molecule), the free evolution delay was set to an optimized value τ=1 ms , after using relaxation dispersion experiments to assure a negligible chemical exchange contribution to R2,obs (Figure S1a). The KI of 1, 1b-d, 2, and 3 with DC-SIGN (ECD) was determined by titration experiments in a competitive fashion. Increasing amounts of the competitor molecules (compounds 1, 1b-d, 2, and 3) were added to a solution mixture of the spy molecule and the protein in each case, calculating the R2,obs of the spy molecule at each competitor concentration while the ratio [Spy-molecule]/[Protein] is fixed (40:1) (Figure S1c).
(§2) 19F-R2 filtered experiments
The KD of compounds 1, 1b-d, 2 and 3 was estimated applying a 19F-R2 filtered approach. 6-F-ManαOMe, which weakly binds to DC-SIGN, was selected as the spy molecule. Relaxation rates R2 were determined employing a CPMG pulse sequence, by fitting the observed 19F signal intensity to the exponential decay curve:
ܫ(ݐ) = ܫ଴݁ି௧ோమ = ܫ଴݁ି௡ଶఛோమ (1) where ܫ(ݐ) refers to intensity at time ݐ, ܫ଴ is intensity at ݐ = 0, and ܴଶ is the transversal relaxation rate (ܴଶ = 1/ܶଶ).
In the limit of fast-exchange where the exchange contribution to the observed transversal relaxation rate ܴଶ,௢௕௦ is insignificant (Figure S1, a)), the following equations apply:
ܴଶ,௢௕௦ = ܴଶ,௙ + ൫ܴଶ,௕ − ܴଶ,௙൯݌௕ (2)
(§3) [ܲ]் + [ܮ]் + ܭ஽ − ඥ([ܲ]் + [ܮ]் + ܭ஽)ଶ − 4[ܲ]்[ܮ]் (3) where [ܲ]் and [ܮ]் are the total protein and ligand concentrarion respectively, [ܴ]ଶ,௙ and [ܴ]ଶ,௕ are the relaxation rates in the free and bound states, ݌௕ is the fraction of bound ligand and ܭ஽ the dissociation constant of the protein-ligand complex. [ܴ]ଶ,௙ of 6-F-ManαOMe was measured in absence of the lectin, and Equation 2 was used to estimate ܭ஽and [ܴ]ଶ,௕ for the […]
Then, ܭூ of compounds 1, 1b-d, 2 and 3 was measured in a competitive manner. ܴଶ,௢௕௦ of 6-F-ManαOMe (spy molecule) in solution with DC-SIGN ECD was monitored at 5 different competitor concentrations ([ܫ]) in each case with a fixed [ܲ]்/[ܮ]் ratio (Figure S1, c)), to derive ܭூ by fitting to Equation 2 with ݌௕ as defined in Equations (4) and (5) (Table 2):
݌௕ = 3ܭ + 2 cos൫ߠൗ ൯ √ܽଶ − 3ܾ − ܽ (4)
ߠ = cos ൬ ଶඥ(௔మିଷ௕)య ൰, ܽ = ܭ஽ + ܭூ + [ܮ]் + [ܫ]் − [ܲ]், ܾ = ([ܫ]் − [ܲ]்)ܭ஽ + ([ܮ]் − [ܲ]்)ܭ஽ + ܭூܭ஽, ܿ = −ܭூܭ஽[ܲ]்
Figure S1. 19F-R2 filtered experiments. a) Relaxation dispersion experiment for 6-F-ManαOMe (the spy molecule). R2,obs of the 19F nucleus is measured for different values of ωCPMG. Ligand and protein sample concentrations were: [6-F-ManαOMe] = 400 µM, [DC-SIGN (CRDs)] = 10 µM (counting concentration of CRDs, i.e, 4 CRDs per DC-SIGN ECD tetramer). For ωCPMG > 1000 s-1, there is virtually negligible exchange contribution to R2. Therefore, all the subsequent R2 filtered experiments were carried out with τCPMG = 1/ωCPMG = 1 ms. b) KD determination of 6-F-ManαOMe with DC-SIGN. R2,obs was measured for increasing amounts of [6-F-ManαOMe]/[DC-SIGN (CRDs)] (blue dots). KD and R2,b were obtained from fitting to Equation 2, which is valid in the fast-exchange regime (Rex = 0) [39a]. The predicted values at each [6-F-ManαOMe]/[DC-SIGN (CRDs)] are shown as red stars for comparison c) Titration curves showing the variation in 19F-R2,obs of the spy molecule 6-F-ManαOMe, when increasing amounts of the competitors (I) 1, 1b-d, 2 and 3 are added to a mixture [6-F-ManαOMe] = 400 µM, [DC-SIGN (CRDs)] = 10 µM. […]

[2] = molecular target: T2, DC-SIGN (ECD tetramer) (Homo sapiens, UniProt Q9NNX6); test: 2D-STD-TOCSYreF NMR experiments (binding epitope); conditions: for total relative STD per Man ring: normalized to the global observed STD; for % STD (normalized): normalized to largest STD in each molecule
T2 construct: DC-SIGN full extracellular domain (ECD, residues 70-404, Thermo Fischer Scientific); made in house
T2 sequence (Q9NNX6 70-404): T1 sequence (Q9NNX6 70-404)
Source text: The interaction between DC-SIGN and the three Man-based 2-deoxy-fluoro oligosaccharides (Figure 1) was first analyzed using 2D-STD-TOCSYreF experiments (Figure 2). A long TOCSY mixing time (128 ms) was used to extend the polarization to all protons within the same spin system for each Man ring. The enhanced resolution of the 2D-TOCSYreF allowed the assignment of most of the STD NMR cross peaks with high reliability for the three fluorinated compounds (Figure 2 and Table 1). Generally speaking, the inherent loss of sensitivity due to the heteronuclear reF transfer in the 2D-STD-TOCSYreF experiments is overcompensated by the gained spectral dispersion.
Figure 2 2D-TOCSYreF off-resonance spectrum (red) and 2D-STD-TOCSYreF peaks (blue) obtained for 1 (top panel), 2 (central panel) and 3 (bottom panel) in the presence of DC-SIGN. The ^19F NMR frequencies are given in the abscissa axis and the ^1H NMR frequencies in the ordinate axis. The STD cross peaks are shifted to high field in the ^19F frequency to facilitate visual inspection. Every blue cross peak corresponds to the STD NMR intensity of the particular ^1H NMR nucleus in a given monosaccharide, which is encoded by the ^19F frequency. The ligand concentration was 1.4 mM in each case, with 9.14 μM of DC-SIGN tetramer, thus containing four carbohydrate recognition domains (CRD) (ligand/protein-CRD ratio is 38:1). The on-resonance irradiation was set to 0.85 ppm, with a saturation time of 2 s. The relative STD values, shown by colored circles, are obtained from the ratio between the corresponding peaks in the 2D STD-TOCSY-reF and 2D-TOCSYreF off-resonance spectra, and normalized to the largest STD in each molecule. The circles connected by a colored thin line correspond to overlapped signals in the spectrum, so that the STD intensity is shown as ‘spread’ between the corresponding ^1H nuclei (meaning each of these protons may contribute or not to the total STD observed). In this case, the added STD intensity is given. The total relative STD per Man ring for each molecule is also specified with a colored tag, using the same color code as the circles. TEXT PRINTED IN THE PICTURE: 1: % STD (Man II): 44 %; % STD (Man III): 9 %; % STD (Man I): 47 % | 2: % STD (Man III): 11 %; % STD (Man I): 89 % | 3: % STD (Man II): 70 %; % STD (Man III): 30 % DOUBTS OF THE COPYIST ABOUT THIS PICTURE: The percent tags are matched to the Man I/II/III rings by position and colour only. The measure '% STD' is printed only at the colour bar. / The percent tags are relative STD-NMR values per sugar ring (binding epitope), so it is uncertain whether they count as a result or belong to the excluded spectra.
Samples for the 2D STD-TOCSY-reF contained 9.14 µM ECD (tetramer) and 153 eq. of ligand (1.4 mM, the ratio ligand/protein (CRD) is 38:1) in each case. The 2D STD-TOCSY-reF setup consists on a proton saturation transfer scheme (^1Hprotein→^1Hligand-STD) with subsequent evolution through JHH couplings (TOCSY), to finally refocus the STD-edited information in the ^19F dimension (reF). As STD parameters, selective saturation was applied for 2 s using 90º PC9 pulses of 10 ms length, with on-resonance saturation set at 0.85 ppm and off-resonance at 60 ppm. The TOCSY mixing time used was 128 ms, and the corresponding JHF evolution and refocusing delays in the reF module were Δ^H = 10.4 ms and Δ^F = 6 ms, respectively. The relative saturation values (%) were calculated from the ratio between peaks in the 2D STD-TOCSY-reF spectrum and the corresponding ones in the off-resonance TOCSY-reF spectrum.

[3] = molecular target: T1, DC-SIGN (ECD); test: 19F-R2 filtered NMR KD determination of the spy molecule; type: binding; conditions: spy molecule with DC-SIGN; fast-exchange regime, τCPMG 1 ms
Protocol: as §1, §2
The KD of compounds 1, 1b-d, 2 and 3 was estimated applying a 19F-R2 filtered approach. […] Relaxation rates R2 were determined employing a CPMG pulse sequence, by fitting the observed 19F signal intensity to the exponential decay curve: […]
as §3

[4] = proton ManI-1, ligand 1.4 mM, 9.14 µM tetramer, 2 s saturation at 0.85 ppm

Compound: CO[C@H]1O[C@H](CO[C@H]2O[C@H](CO)[C@@H](O)[C@H](O)[C@@H]2F)[C@@H](O)[C@H](O)[C@@H]1F [compound 3]
- total relative STD per Man ring ([2]; Man II ring): 70%
- total relative STD per Man ring ([2]; Man III ring): 30%
- % STD (normalized) ([2]; overlapped protons ManII-3/6): 86%
- % STD (normalized) ([2]; overlapped protons ManII-4/5): 100%
- % STD (normalized) ([2]; overlapped protons ManIII-3/4/5/6): 47%
- % STD (normalized) ([2]; proton ManII-1): 31%
- % STD (normalized) ([2]; proton ManII-2): 45%
- % STD (normalized) ([2]; proton ManIII-1): 33%
- % STD (normalized) ([2]; proton ManIII-2): 31%
- loss in affinity versus the trisaccharide 1 [1]: ca. two-fold
- weaker ligand relative to best binders (1b, 1c, 1d) [1]: four-fold weaker
- Ki [1]: 4 mM

Compound: CO[C@H]1O[C@H](CO[C@H]2O[C@H](CO)[C@@H](O)[C@H](O)[C@@H]2F)[C@@H](O)[C@H](O[C@H]2O[C@H](CO)[C@@H](O)[C@H](O)[C@@H]2F)[C@@H]1F [compound 1]
- total relative STD per Man ring ([2]; Man I ring): 47%
- total relative STD per Man ring ([2]; Man II ring): 44%
- total relative STD per Man ring ([2]; Man III ring): 9%
- % STD (normalized) ([2]; overlapped protons ManII-3/6): 47%
- % STD (normalized) ([2]; overlapped protons ManII-4/5): 52%
- % STD (normalized) ([2]; overlapped protons ManIII-1/2): 31%
- % STD (normalized) [2, 4]: 16%
- % STD (normalized) ([2]; proton ManI-2): 42%
- % STD (normalized) ([2]; proton ManI-3): 100%
- % STD (normalized) ([2]; proton ManII-1): 19%
- % STD (normalized) ([2]; proton ManII-2): 31%
- binding free energy difference ([1]; corresponding to the variation in affinity of 1 versus 1b): ca. 1 kcal/mol
- weaker ligand relative to best binders (1b, 1c, 1d) [1]: two-fold weaker
- Ki [1]: 2.5 mM
- variation in binding affinity ([1]; trifluorinated 1 versus 1b): 2.5 fold

Compound: CO[C@H]1O[C@H](CO)[C@@H](O)[C@H](O[C@H]2O[C@H](CO)[C@@H](O)[C@H](O)[C@@H]2F)[C@@H]1F [compound 2]
- total relative STD per Man ring ([2]; Man I ring): 89%
- total relative STD per Man ring ([2]; Man III ring): 11%
- % STD (normalized) [2, 4]: 15%
- % STD (normalized) ([2]; proton ManI-2): 33%
- % STD (normalized) ([2]; proton ManI-3): 74%
- % STD (normalized) ([2]; proton ManI-4): 100%
- % STD (normalized) ([2]; proton ManI-5): 22%
- % STD (normalized) ([2]; proton ManIII-1): 17%
- % STD (normalized) ([2]; proton ManIII-2): 14%
- loss in affinity versus the trisaccharide 1 [1]: ca. four-fold
- weaker ligand relative to best binders (1b, 1c, 1d) [1]: nine-
- Ki [1]: 9.6 mM

Compound: CO[C@H]1O[C@H](CF)[C@@H](O)[C@H](O)[C@@H]1O [6-F-ManαOMe]
- Kd [3]: 1.3 mM

Further lines, results first:

- Ki [1]: 1.1 mM
Compound: CO[C@H]1O[C@H](CO[C@H]2O[C@H](CO)[C@@H](O)[C@H](O)[C@@H]2O)[C@@H](O)[C@H](O[C@H]2O[C@H](CO)[C@@H](O)[C@H](O)[C@@H]2O)[C@@H]1O [1b, reference compound]

- Ki [1]: 1 mM
Compound: CO[C@H]1O[C@H](CO[C@H]2O[C@H](CO)[C@@H](O)[C@H](O)[C@@H]2O)[C@@H](O)[C@H](O[C@H]2O[C@H](CO)[C@@H](O)[C@H](O)[C@@H]2O)[C@@H]1F [1c]

- Ki [1]: 1.1 mM
Compound: CO[C@H]1O[C@H](CO[C@H]2O[C@H](CO)[C@@H](O)[C@H](O)[C@@H]2O)[C@@H](O)[C@H](O[C@H]2O[C@H](CO)[C@@H](O)[C@H](O)[C@@H]2F)[C@@H]1O [1d]
